Test results from PubChem BioAssay (NCI).
“And” between values parts separate entries of the source, which are not always exact repeats. Identical values can stand only once.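 Five concentrations, 48 hours, 96-well plates. The concentration for 50% growth inhibition is given as GI50. TGI: total growth inhibition.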

Columns and labels:
Assay in all cases: NCI-60 cell line screen, 48 h
[1] = test system: OVCAR-5 ovarian
[2] = test system: HCT-116 colon
[3] = test system: 786-0 renal
[4] = test system: K-562 leukemia
[5] = test system: HL-60(TB) leukemia
[6] = test system: ACHN renal
[7] = test system: SF-295 CNS
[8] = test system: MDA-MB-435
[9] = test system: DU-145 prostate
[10] = test system: T-47D breast

SMILES	GI50 [1] [µM]	TGI [1]	TGI [2] [µM]	GI50 [3] [µM]	TGI [3] [µM]	GI50 [4] [µM]	TGI [4]	GI50 [5] [µM]	TGI [5] [µM]	GI50 [6] [µM]	TGI [6]	TGI [7] [µM]	GI50 [2] [µM]	GI50 [8] [µM]	TGI [8] [µM]	GI50 [9] [µM]	TGI [9] [µM]	GI50 [10] [µM]	TGI [10]	GI50 [7] [µM]
COC1CC(OS(=O)(=O)c2ccc(C)cc2)C(OC(=O)c2ccccc2)C(C)O1 (stereo not drawn)	> 100	> 100 µM	> 10	> 100	> 100	> 100	> 100 µM	> 100	> 100	> 100	> 100 µM	> 100	–	–	–	–	–	–	–	–
CCOC(=O)C1=C(NC)OC/C1=N\NC(=O)c1ccccc1O	–	> 100 µM	58.3	–	> 100	–	> 100 µM	–	71.4	–	–	> 100	–	–	–	–	–	–	–	–
Cc1c(C#N)c(=O)[nH]c(=O)n1CCN1CCN(C(=O)NCCCCCCNC(=O)N2CCN(CCn3c(C)c(C#N)c(=O)[nH]c3=O)CC2)CC1	–	–	> 100	–	> 100	–	> 100 µM	–	> 100	–	> 100 µM	> 100	–	–	–	–	–	–	–	–
O=C(O)C1(P(=O)(O)O)CC1	–	–	> 100	–	> 100	–	> 100 µM	–	> 100	–	> 100 µM	> 100	–	–	–	–	–	–	–	–
COc1cc2c(cc1OC(=O)CC(C)O)C1C(OC2=O)C(OC(C)=O)C=C2CCN(C)[C@H]21 (stereo partly drawn)	–	> 100 µM	> 100	–	53.7	–	> 100 µM	–	–	–	> 100 µM	49.9	–	–	–	–	–	–	–	–
CCN1CCC(CCOC)(CN2c3ccccc3Sc3ccc(Cl)cc32)C1 (stereo not drawn)	1.83	3.88 µM	3.32	1.81	3.39	–	–	–	–	1.78	3.44 µM	3.39	1.86	1.74	3.35	1.92	3.68	2.05	4.6 µM	1.73
CS(=O)(=O)c1ccc(C(=O)Nc2ccc(Cl)c(-c3ccccn3)c2)c(Cl)c1	–	> 100 µM and 94.6 µM	–	63.2	> 100	–	> 100 µM and 45.7 µM	–	–	–	> 100 µM and 23.5 µM	–	–	–	–	–	> 100	–	> 100 µM and 12.1 µM	–
COc1cc(C(=O)C/C(CCC(=O)Nc2ccccc2[N+](=O)[O-])=N\NC(=O)CC#N)ccc1O	–	> 100 µM	–	–	> 100	–	> 100 µM	–	> 100	–	> 100 µM	> 100	–	–	–	–	–	–	–	–
COc1ccc2cc(-c3ccoc(=O)c3-c3cc(OC)c(OC)c(OC)c3)ccc2c1	0.369	> 100 µM	–	0.201	> 100	0.0346	> 39.4 µM	0.0353	0.793	1.48	> 100 µM	–	0.044	–	–	0.188	> 100	0.0772	> 100 µM	0.045
CC(=O)OC1CCn2nnc(CO[Si](C)(C)C(C)(C)C)c21 (stereo not drawn)	–	> 100 µM	> 100	–	> 100	–	> 100 µM	–	–	–	> 100 µM	> 100	–	–	–	–	–	–	–	–
CCC1CN2CCc3cc(OC)c(OC)cc3C2CC1CC1c2cc(OC)c(OC)cc2CCN1C(=O)C1CCCN1C(=O)OCc1ccccc1 (stereo not drawn)	–	34.2 µM	25.8	–	40.8	–	36 µM	–	28.9	–	32.1 µM	30.4	–	–	–	–	–	–	–	–
CCOC(=O)C1Oc2ccc([N+](=O)[O-])c3c2C1(O)CCC3 (stereo not drawn)	–	> 100 µM	–	–	> 100	–	> 100 µM	–	> 100	–	> 100 µM	> 100	–	–	–	–	–	–	–	–
O=S(=O)(c1ccccc1)C(CN1CCCCC1)S(=O)(=O)c1ccccc1	–	> 100 µM	–	–	> 100	–	> 100 µM	–	> 100	–	> 100 µM	> 100	–	–	–	–	–	–	–	–
c1ccc2c(c1)c(NCCCCN1CCCCC1)cc1c3ccccc3c(NCCCCN3CCCCC3)cc21	24.3	48.9 µM	32.7	12	29.1	7.85	> 100 µM	19.7	> 100	15.5	30.5 µM	65.4	5.22	3.42	12.3	16.3	46.2	–	–	22.8
Nn1c(-c2ccccc2Cl)nc2ccccc2c1=O	–	> 100 µM	> 100	–	> 100	–	> 100 µM	–	> 100	–	> 100 µM	> 100	–	–	–	–	–	–	–	–
N#CC(C(=O)CCC(=O)Nc1cccc(Cl)c1)c1ccccc1 (stereo not drawn)	–	> 100 µM	> 100	–	> 100	–	> 100 µM	–	> 100	–	> 100 µM	> 100	–	–	–	–	–	–	–	–
C=C1COC(/C=C(\C)CC/C=C(\C)CCl)C1 (stereo not drawn)	–	> 100 µM	> 100	–	> 100	–	> 100 µM	–	> 100	–	> 100 µM	> 100	–	–	–	–	–	–	–	–
COc1ccc(C2CC(c3cc(OC)c(OC)c(OC)c3)=NN2C(C)=O)cc1OCC(=O)Nc1nc2ccc(C(F)(F)F)cc2s1 (stereo not drawn)	28.2	> 100 µM	–	3.58	12.2	–	–	–	–	2.48	7.13 µM	11.5	–	–	–	–	–	–	–	3.06
